# From patent US20220273757A1, “METHODS FOR ADMINISTERING ANGIOTENSIN II BY […] LEVELS” (La Jolla Pharma, LLC, priority 2019, published 2022)
# “And” between values parts separate entries of the source, which are not always exact repeats. Equal values may be shown once.
# Legend:
# Format in all cases: in vivo, human
# patients with severe AKI = test: Renal recovery in patients with severe AKI by serum renin levels, ATHOS-3; conditions: first 7 days
# Experimental: (§1) The Angiotensin II for the Treatment of High-Output Shock 3 (ATHOS-3) study has been previously described—NCT02338843. In brief, adults with vasodilatory shock despite volume resuscitation with ≥25 mL/kg and high-dose vasopressors (defined as a norepinephrine equivalent [NED] of greater than 0.2 mcg/kg/min) were randomly assigned 1:1 to receive synthetic human angiotensin II (La Jolla Pharmaceutical Company, San Diego, Calif.) or saline placebo plus standard vasopressors. Randomization was stratified according to MAP at screening and Acute Physiology and Chronic Health Evaluation II (APACHE II) score.
# (§2) Study drug infusion started at 20 ng/kg/min and was adjusted during the first 3 hours to increase the MAP to ≥75 mm Hg while keeping other vasopressors constant. Thereafter, the study drug and other vasopressors were adjusted at the discretion of the treating ICU team to maintain a MAP between 65 and 75 mm Hg. At 48 hours, the infusion was discontinued according to a protocol-specified tapering process. However, continuation was allowed for up to 7 days at the discretion of the ICU team.
# Descriptive statistics with 95% confidence intervals (CIs) were used to summarize data according to treatment group. Differences between treatment groups were identified using the Wilcoxon rank-sum test or analysis of variance for continuous or ordinal variables and the chi-square or Fisher's exact test for discrete variables. Time-to-event data was summarized, including survival, using Kaplan-Meier estimates and compared them by log-rank test. Hazard ratios (HRs) are estimated from a proportional hazards model. A two-sided alpha level of 0.05 was used to test for differences in treatment outcomes without adjustments for multiplicity. Correlation coefficients were calculated for renin versus angiotensin I and the angiotensin I/II ratio. Correlation coefficients were also calculated for renin versus angiotensin I for hour 0 (baseline) and hour 3. […]
# [1] = system: patients with catecholamine-resistant vasodilatory shock; test: 28-day mortality / survival in ATHOS-3 by baseline serum renin; conditions: for Hazard Ratio (95% CI), mortality, treatment arm: patients with elevated baseline renin only; for unstratified hazard ratio, 28-day mortality, vs placebo: renin above study population median (high renin), N = 128, 95% CI 0.35-0.88
# Experimental: as §1, §2
# (§3) Descriptive statistics with 95% confidence intervals (CIs) were used to summarize data according to treatment group. Differences between treatment groups were identified using the Wilcoxon rank-sum test or analysis of variance for continuous or ordinal variables and the chi-square or Fisher's exact test for discrete variables. Time-to-event data was summarized, including survival, using Kaplan-Meier estimates and compared them by log-rank test. Hazard ratios (HRs) are estimated from a proportional hazards model. A two-sided alpha level of 0.05 was used to test for differences in treatment outcomes without adjustments for multiplicity. Correlation coefficients were calculated for renin versus angiotensin I and the angiotensin I/II ratio. Correlation coefficients were also calculated for renin versus angiotensin I for hour 0 (baseline) and hour 3. For multivariate analyses, covariates that were utilized for study stratification (Model A), covariates that were different between groups defined by P<0.10 (Model B), and statistically significant covariates from Models A and B were included in a multivariate logistic regression (Model C). The dichotomized baseline covariates that were utilized for study stratification were MAP <65 mm Hg and APACHE II score >30.
# [2] = system: patients with catecholamine-resistant vasodilatory shock; test: Ventilator liberation, RRT liberation and ICU discharge in ATHOS-3 by baseline renin
# Experimental: as §1, §2, §3
# [3] = system: patients with catecholamine-resistant vasodilatory shock; test: MAP response at hour 3 by baseline renin, ATHOS-3
# Experimental: as §1, §2
# [4] = system: patients with catecholamine-resistant vasodilatory shock; test: Adverse events, ATHOS-3 patients with elevated baseline renin; conditions: patients with elevated renin concentrations at baseline
# Experimental: Safety was evaluated by assessment of treatment-emergent adverse events, serious adverse events, and adverse event-related drug discontinuations. Data were analyzed with the use of SAS software, version 9.4 (SAS Institute, Cary, N.C.) and R version 3.5.3. (R Foundation).
# serum renin = test: Serum renin concentration at baseline and hour 3 (DRG Renin ELISA), ATHOS-3 patients
# Experimental: as §1, §2
# (§4) Serum concentrations of renin, angiotensin I, and angiotensin II were measured after randomization but prior to administration of the study drug and at 3 hours after initiation of study drug.
# Serum renin was measured with the DRG Renin ELISA Kit (DRG Instruments GmbH, Marburg, Germany). The DRG ELISA Kit is a solid-phase enzyme-linked immunosorbent assay based on the sandwich principle. The microtiter wells are coated with a monoclonal (mouse) antibody directed toward a unique antigenic site of the human active renin molecule. An aliquot of patient sample containing endogenous renin is rapidly thawed in a water bath and incubated in the coated well together with assay buffer. After incubation, unbound components are washed off. Finally, enzyme conjugate, a monoclonal anti-renin antibody conjugated with horseradish peroxidase, is added. After incubation, unbound enzyme conjugate is washed off. The amount of bound peroxidase is proportional to the concentration of renin in the sample. Having added the substrate solution, the intensity of color developed is proportional to the concentration of active renin in the patient sample. Personnel who conducted the assays were blinded to the study database and treatment allocation.
# [5] = system: patients with catecholamine-resistant vasodilatory shock; test: Change in CV and total SOFA score from baseline to hour 48, ATHOS-3
# Experimental: as §1, §2, §3
# angiotensin I = test: Serum angiotensin I level at baseline and hour 3, ATHOS-3 patients; conditions: hour 3; IQR 13.4%-65.1% reduction; placebo 8.1%
# Experimental: as §1, §2, §4
# [6] = renin above study population median, N = 55
# [7] = renin above study population median, N = 55, listed as Angiotensin II
# [8] = renin below study population median
# [9] = renin below study population median, N = 64
substance,measurement,setting,value
Asp-Arg-Val-Tyr-Ile-His-Pro-Phe [angiotensin II],"RR (95% CI), likelihood of renal recovery vs placebo","patients with severe AKI; all patients with severe AKI, N = 105",2.902 (1.293-6.515)
same,"RR (95% CI), likelihood of renal recovery vs placebo","patients with severe AKI; severe AKI, renin above study median, N = 62","4.112 (1.376-12.29), 0.0061"
same,"RR (95% CI), likelihood of renal recovery vs placebo","patients with severe AKI; severe AKI, renin below study median, N = 32","2.215 (0.429-11.42), 0.3295"
same,"HR (95% CI), treatment arm, multivariate","[1]; Table 4A whole cohort, full model",0.77 (0.54-1.08)
same,"HR (95% CI), treatment arm, multivariate","[1]; Table 4A whole cohort, step-wise model",0.77 (0.54-1.08)
same,"HR (95% CI), treatment arm, multivariate","[1]; Table 4B population below median renin, full model",1.08 (0.64-1.82)
same,"HR (95% CI), treatment arm, multivariate","[1]; Table 4B population below median renin, step-wise model",1.11 (0.66-1.86)
same,"HR (95% CI), treatment arm, multivariate","[1]; Table 4C population above median renin, full model",0.62 (0.39-0.98)
same,"HR (95% CI), treatment arm, multivariate","[1]; Table 4C population above median renin, step-wise model",0.62 (0.39-0.98)
same,"HR (95% CI), treatment arm, multivariate","[1]; Table 4D whole cohort with treatment-renin interaction, full model",1.08 (0.64-1.81)
same,"HR (95% CI), Treatment * Renin >= Population Median interaction","[1]; Table 4D whole cohort, full model",0.54 (0.27-1.09)
same,"HR (95% CI), treatment arm, multivariate","[1]; Table 4D whole cohort, step-wise model",0.77 (0.54-1.08)
same,Day 28 mortality,"[1]; baseline renin <Pop Median, N = 73","N = 73, 43.9%"
same,Day 28 mortality,"[1]; baseline renin >=Pop Median, N = 64","N = 64, 50.1%"
same,"HR, mortality sensitivity analysis",[1]; high renin cut-off 2x ULN,0.69
same,"HR, mortality sensitivity analysis",[1]; high renin cut-off 3x ULN,0.57
same,"HR, mortality sensitivity analysis",[1]; high renin cut-off 4x ULN,0.63
same,"HR, mortality sensitivity analysis",[1]; high renin cut-off ULN,0.76
same,"HR (95% CI), survival, vs placebo","[1]; high renin, AKI subset, N = 62","0.51 (0.26-0.99), 0.0411"
same,"HR (95% CI), survival, vs placebo","[1]; high renin, ARDS subset, N = 41","0.49 (0.21-1.16), 0.0964"
same,"HR (95% CI), survival, vs placebo","[1]; low renin, AKI subset, N = 32","0.55 (0.19-1.58), 0.2574"
same,"HR (95% CI), survival, vs placebo","[1]; low renin, ARDS subset, N = 34","1.38 (0.59-3.26), 0.4583"
same,"HR (95% CI), survival, vs placebo","[1]; low renin, all, N = 127","1.11 (0.66-1.86), 0.7002"
same,"Hazard Ratio (95% CI), mortality, treatment arm",[1]; Model A,0.58 (0.36-0.93)
same,"Hazard Ratio (95% CI), mortality, treatment arm",[1]; Model B,0.62 (0.38-0.99)
same,28-day mortality,"[1]; patients with renin above the study population median, N = 55, table gives (95% CI)",50.9%
same,28-day mortality,"[1]; patients with renin above the study population median, N = 55, table gives (95% CI), listed as Angiotensin II",51% (39%-65%)
same,28-day mortality,"[1]; patients with renin below the study population median, N = 64",45% (34%-58%)
same,"unstratified hazard ratio, 28-day mortality, vs placebo",[1]; all,0.56 and 0.556
same,"unstratified hazard ratio, 28-day mortality, vs placebo","[1]; all, listed as LJPC 501","0.56 (0.35-0.88), 0.0115"
same,"parameter estimate, treatment, Day 28 survival model",[1]; results available data,−0.298
same,difference in 28-day mortality vs placebo,[1]; serum renin below the study population median,no statistically significant difference
same,"parameter estimate, treatment, Day 28 survival model",[1]; with multiple imputation of missing serum renin,−0.229
same,RRT Liberation by Day 7 (alive and RRT free),[2]; renin above study population median,43%
same,ICU Discharge by Day 28,[2]; [6],44%
same,Ventilator Liberation by Day 7 (alive and vent free),[2]; [6],28%
same,ICU Discharge by Day 28,[2]; [7],44% (32%-58%)
same,Ventilator Liberation by Day 7 (alive and vent free),[2]; [7],28% (18%-43%)
same,RRT Liberation by Day 7 (alive and RRT free),"[2]; renin above study population median, listed as Angiotensin II",43% (25%-66%)
same,RRT Liberation by Day 7 (alive and RRT free),[2]; [8],28% (13%-54%)
same,"ventilator and RRT liberation, ICU discharge: difference between treatment groups",[2]; [8],no differences
same,ICU Discharge by Day 28,[2]; [9],39% (28%-52%)
same,Ventilator Liberation by Day 7 (alive and vent free),[2]; [9],27% (18%-40%)
same,MAP Response at Hour 3,"[3]; baseline renin <Pop Median, 57/73 patients",57/73 (78.1%)
same,MAP Response at Hour 3,"[3]; baseline renin >=Pop Median, 39/64 patients",39/64 (60.9%)
same,adverse events or serious adverse events vs placebo,[4],no significant difference
same,median reduction in renin concentration,"serum renin; 3 hours after initiation of therapy, IQR 37.9%-66.5% reduction, placebo 14.1%",54.3%
same,"Renin % Change at Hour 3, Mean (SD)",serum renin; N 102,−45.5 (38.59) ^ %
same,"Renin % Change at Hour 3, Median (range)",serum renin; N 102,−54.8 (−91.1-161.0) %
same,"Renin Change at Hour 3, Mean (SD)",serum renin; N 102,−210.3 (307.43) ^
same,"Renin Change at Hour 3, Median (range)",serum renin; N 102,−99.6 (−1574-496.2)
same,"Hour 3 Renin, Mean (SD)",serum renin; N 103,231.8 (416.91) ^
same,"Hour 3 Renin, Median (range)",serum renin; N 103,85.0 (4.0-2739.8)
same,"Hour 48 change from baseline in Total SOFA, Mean (SD)","[5]; elevated renin population, N = 54",1.35±6.032
same,"Hour 48 change from baseline in Total SOFA, Mean (SD)","[5]; elevated renin population, N = 54, listed as LJPC-501","N = 54, 1.35 (6.032)"
same,"Hour 48 change from baseline in CV SOFA, Mean (SD)","[5]; elevated renin population, N = 55",−1.56±1.793
same,"Hour 48 change from baseline in CV SOFA, Mean (SD)","[5]; elevated renin population, N = 55, listed as LJPC-501","N = 55, −1.56 (1.793)"
same,"Hour 48 change from baseline in Total SOFA, Mean (SD)","[5]; low renin population, N = 62","N = 62, 0.85 (5.524)"
same,"Hour 48 change from baseline in CV SOFA, Mean (SD)","[5]; low renin population, N = 64","N = 64, −1.77 (1.716)"
same,change in CV SOFA score compared to placebo,"[5]; total ATHOS-3 population, baseline to hour 48",significantly greater
same,median reduction in angiotensin I levels,angiotensin I,40.8%
